Data taken from patent publication US6153429A (priority 1997, dated 2000).

Assay: in vitro
Details: mouse, c3h/10t1/2 t1 cells

Row | Compound | fold induction at 504 h
1 | c1ccc2c(c1)cc1ccc3cccc4ccc2c1c34 [Benzo[a]pyrene, benzo[a]pyrene] | 1.15
2 | C=C(C)C12OC3(c4ccccc4)OC1C1C4OC4(CO)C(O)C4(O)C(=O)C(C)=CC4C1(O3)C(C)C2OC(=O)/C=C/C=C/c1ccccc1 (stereo not drawn) [Mezerein, mezerein] | 2
3 | C1CCOC1 [tetrahydrofuran] | 1
4 | Cn1c(=O)c2c(ncn2C)n(C)c1=O [caffeine] | 1
5 | CC/C(=C(/CC)c1ccc(O)cc1)c1ccc(O)cc1 [Diethylstilbestroel, diethylstilbestroel] | 1.12

Assay: not given
Details: background statement, chemicals identified by IARC; cited from earlier work

Row | Compound | mutagenicity
6 | CC/C(=C(/CC)c1ccc(O)cc1)c1ccc(O)cc1 [Diethylstilbestroel, diethylstilbestroel] | only weakly mutagenic
